Where a chain is given by its changes, count along the chain named. Read-outs that look alike come from different tables or passages of the source.
Columns and labels:
P450 (CYP2B4) = test: Binding of redox mediator dyes to P450; details: data not shown
CYP2B4 F429H [1] = biological target: T1, CYP2B4 F429H (Oryctolagus cuniculus, UniProt P00178, F429H); test: biochemical
T1 sequence (P00178 1-491 F429H): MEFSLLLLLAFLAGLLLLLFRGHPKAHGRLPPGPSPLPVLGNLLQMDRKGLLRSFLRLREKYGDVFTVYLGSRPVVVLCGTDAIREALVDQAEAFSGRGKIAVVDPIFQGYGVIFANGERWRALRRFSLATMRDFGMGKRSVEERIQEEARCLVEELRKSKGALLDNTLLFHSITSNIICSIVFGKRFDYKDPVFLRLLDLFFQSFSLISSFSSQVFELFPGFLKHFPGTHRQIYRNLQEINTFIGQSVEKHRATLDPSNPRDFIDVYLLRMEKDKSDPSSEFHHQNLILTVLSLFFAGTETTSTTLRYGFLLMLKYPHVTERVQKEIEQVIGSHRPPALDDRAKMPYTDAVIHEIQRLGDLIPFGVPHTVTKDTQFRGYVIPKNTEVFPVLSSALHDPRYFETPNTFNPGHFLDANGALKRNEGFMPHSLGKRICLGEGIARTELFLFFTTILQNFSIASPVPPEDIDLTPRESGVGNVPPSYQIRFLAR

wild type (WT) CYP2B4 = biological target: T2, wild type (WT) CYP2B4 (Oryctolagus cuniculus, UniProt P00178); test: Substrate binding
T2 sequence (P00178 1-491): T1 sequence (P00178 1-491 F429H) with H429F

CYP2B4 F429H [2] = biological target: T3, CYP2B4 F429H (Oryctolagus cuniculus, UniProt P00178, F429H)
T3 sequence (P00178 1-491 F429H): T1 sequence (P00178 1-491 F429H)
T3 sequence (P00388 1-678 partner): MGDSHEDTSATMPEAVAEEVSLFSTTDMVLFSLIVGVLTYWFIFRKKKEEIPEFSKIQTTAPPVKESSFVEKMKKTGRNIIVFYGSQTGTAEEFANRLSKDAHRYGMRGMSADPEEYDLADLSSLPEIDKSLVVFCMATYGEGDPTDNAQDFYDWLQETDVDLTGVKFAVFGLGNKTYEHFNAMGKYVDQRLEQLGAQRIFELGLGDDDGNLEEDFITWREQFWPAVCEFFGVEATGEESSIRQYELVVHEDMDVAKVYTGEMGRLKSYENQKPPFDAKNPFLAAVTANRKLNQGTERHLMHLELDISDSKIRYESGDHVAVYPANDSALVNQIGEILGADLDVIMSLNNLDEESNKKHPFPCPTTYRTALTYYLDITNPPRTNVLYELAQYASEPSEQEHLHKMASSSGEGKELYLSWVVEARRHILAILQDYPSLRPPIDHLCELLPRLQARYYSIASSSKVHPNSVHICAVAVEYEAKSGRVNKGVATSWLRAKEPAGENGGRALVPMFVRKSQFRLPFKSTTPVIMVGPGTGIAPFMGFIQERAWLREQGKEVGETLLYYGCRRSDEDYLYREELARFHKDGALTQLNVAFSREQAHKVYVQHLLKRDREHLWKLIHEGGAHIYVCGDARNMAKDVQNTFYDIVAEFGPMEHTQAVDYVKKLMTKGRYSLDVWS

WT CYP2B4 [3] = biological target: T4, WT CYP2B4 (Oryctolagus cuniculus, UniProt P00178); details: 1 mM benzphetamine, 20 °C
T4 sequence (P00178 1-491): T1 sequence (P00178 1-491 F429H) with H429F

CYP2B4 F429H [4] = biological target: T1, CYP2B4 F429H; remark: listed apart in the source
WT CYP2B4 [5] = biological target: T5, WT CYP2B4 (Oryctolagus cuniculus, UniProt P00178); test: N-demethylation of benzphetamine in purified reconstituted system; assay type: biochemical, rabbit; details: wild type; 1 mM benzphetamine, varied reductase
T5 sequence (P00178 1-491): T1 sequence (P00178 1-491 F429H) with H429F
T5 sequence (P00388 1-678 partner): T3 sequence (P00388 1-678 partner)

CYP2B4 F429H [6] = biological target: T1, CYP2B4 F429H; details: 1 mM benzphetamine, 20 °C

Structure (SMILES): c1ccc(C[n+]2ccc(-c3cc[n+](Cc4ccccc4)cc3)cc2)cc1 [benzyl viologen]
- spectral change on addition of dye to P450 (P450 (CYP2B4)): did not cause any spectral change

Structure (SMILES): Cc1cc(C(C)(C)C)c(O)c(C(C)(C)C)c1 [butylated hydroxytoluene, 2,6-di-tert-butyl-4-methylphenol]
- Kd (CYP2B4 F429H [1]): 1.82 ± 0.24 µM
- Kd (wild type (WT) CYP2B4): 0.31 ± 0.14 µM

Structure (SMILES): Nc1ccc2nc3ccc(N)cc3[n+](-c3ccccc3)c2c1.[Cl-] [phenosafranin]
- spectral change on addition of dye to P450 (P450 (CYP2B4)): did not cause any spectral change

Structure (SMILES): C[C@@H](Cc1ccccc1)N(C)Cc1ccccc1 [benzphetamine]
- Kd (CYP2B4 F429H [1]; Ks, F429H, no reductase, no cyt b5, 15 °C): 900 ± 200 µM
- Kd (CYP2B4 F429H [1]; Ks, F429H, no reductase, no cyt b5, 30 °C): 390 ± 80 µM
- Kd (CYP2B4 F429H [1]; Ks, F429H, no reductase, with cyt b5, 15 °C): 150 ± 60 µM
- Kd (CYP2B4 F429H [1]; Ks, F429H, with reductase, no cyt b5, 15 °C): 830 ± 220 µM
- activity retained relative to wild type (N-demethylation of BP) (CYP2B4 F429H [2]; F429H vs wild type): 3.6%
- Vmax (N-demethylation of BP) (CYP2B4 F429H [2]; F429H, 1 mM benzphetamine, varied reductase): 1.60 ± 0.05 nmol of product min^–1 (nmol of 450)^−1
- increase in Em on binding of benzphetamine (WT CYP2B4 [3]): 88 mV
- redox potential Em with BP (WT CYP2B4 [3]; pH 7.4): –244 ± 7 mV
- Kd (wild type (WT) CYP2B4; Ks, WT, no reductase, no cyt b5, 15 °C): 250 ± 7 µM
- Kd (wild type (WT) CYP2B4; Ks, WT, no reductase, no cyt b5, 30 °C): 80 ± 20 µM
- Kd (wild type (WT) CYP2B4; Ks, WT, no reductase, with cyt b5, 15 °C): 58 ± 6 µM
- Kd (wild type (WT) CYP2B4; Ks, WT, with reductase, no cyt b5, 15 °C): 220 ± 10 µM
- decreased affinity of mutant vs WT (CYP2B4 F429H [4]; 30 °C, F429H vs WT): 5 fold
- enhancement of binding by cyt b5 (CYP2B4 F429H [4]; F429H, with vs without cyt b5): 5–6 fold
- Vmax (N-demethylation of BP) (WT CYP2B4 [5]): 49 ± 5 nmol of product min^–1 (nmol of 450)^−1
- increase in Em on binding of benzphetamine (CYP2B4 F429H [6]): 15 mV
- redox potential Em with BP (CYP2B4 F429H [6]; pH 7.4): –230 ± 8 mV

Source: publication PMC4131899 (Biochemistry, 2014)
